Source: ChEMBL document CHEMBL1144527 (Bioorg Med Chem, 2007)

What was measured:
[1] = molecular target: T1, Prostaglandin G/H synthase 1 (Ovis aries, UniProt P05979); assay: Inhibition of ovine COX1 by enzyme immunoassay
T1 sequence (P05979 whole entry): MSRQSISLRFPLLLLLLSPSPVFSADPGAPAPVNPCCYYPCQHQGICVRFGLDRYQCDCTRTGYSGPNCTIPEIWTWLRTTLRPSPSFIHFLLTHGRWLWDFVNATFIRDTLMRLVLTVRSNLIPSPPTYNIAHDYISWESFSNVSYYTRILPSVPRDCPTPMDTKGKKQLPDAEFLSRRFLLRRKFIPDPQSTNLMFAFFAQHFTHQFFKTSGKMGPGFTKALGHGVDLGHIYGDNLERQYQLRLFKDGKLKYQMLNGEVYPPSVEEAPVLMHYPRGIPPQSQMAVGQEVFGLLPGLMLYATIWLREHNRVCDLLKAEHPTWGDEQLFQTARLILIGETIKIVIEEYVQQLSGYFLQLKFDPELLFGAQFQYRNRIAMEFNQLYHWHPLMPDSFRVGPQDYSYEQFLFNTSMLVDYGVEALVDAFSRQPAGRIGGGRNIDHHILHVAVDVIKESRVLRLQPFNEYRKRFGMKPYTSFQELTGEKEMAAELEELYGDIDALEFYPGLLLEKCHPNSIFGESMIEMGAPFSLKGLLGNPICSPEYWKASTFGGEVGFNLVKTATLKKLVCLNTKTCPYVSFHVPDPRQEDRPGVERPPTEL

Ovis aries = species on record: Ovis aries; assay: Selectivity index, ratio of IC50 for ovine COX1 to IC50 for ovine COX2
[2] = molecular target: T2, Prostaglandin G/H synthase 2 (Ovis aries, UniProt P79208); assay: Inhibition of ovine COX2 by enzyme immunoassay
T2 sequence (P79208 whole entry): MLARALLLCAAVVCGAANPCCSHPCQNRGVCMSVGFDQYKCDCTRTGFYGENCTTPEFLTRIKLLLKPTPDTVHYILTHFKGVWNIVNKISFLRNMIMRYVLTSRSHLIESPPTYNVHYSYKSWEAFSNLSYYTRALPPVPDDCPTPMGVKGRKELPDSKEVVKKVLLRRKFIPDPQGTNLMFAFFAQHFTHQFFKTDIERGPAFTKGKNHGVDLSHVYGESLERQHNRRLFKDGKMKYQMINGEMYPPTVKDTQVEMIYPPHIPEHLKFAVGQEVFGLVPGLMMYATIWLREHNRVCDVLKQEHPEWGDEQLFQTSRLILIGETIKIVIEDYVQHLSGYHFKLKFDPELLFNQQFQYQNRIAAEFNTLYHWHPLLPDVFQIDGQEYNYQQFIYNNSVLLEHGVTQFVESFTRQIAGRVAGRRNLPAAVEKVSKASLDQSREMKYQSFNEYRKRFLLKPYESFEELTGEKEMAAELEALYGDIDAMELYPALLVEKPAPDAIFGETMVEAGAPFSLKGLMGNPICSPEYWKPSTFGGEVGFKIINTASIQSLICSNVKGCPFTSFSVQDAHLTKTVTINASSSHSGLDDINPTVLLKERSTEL

| IC50 [1] [µM] | COX1/COX2 IC50 selectivity index (Ovis aries) | IC50 [2] [µM] | SMILES |
| --- | --- | --- | --- |
| 10 | 3.1 | 3.2 | CS(=O)(=O)Nc1ccc(C2=C(c3ccc(F)cc3)C(=O)OC2)cc1 |
| > 100 | > 111 | 0.9 | Cc1ccc(C2=C(c3ccc(NS(C)(=O)=O)cc3)COC2=O)cc1 |
| 31.6 | 18.5 | 1.7 | CS(=O)(=O)Nc1ccc(C2=C(c3ccccc3)C(=O)OC2)cc1 |
| 35.5 | 11.1 | 3.2 | CS(=O)(=O)Nc1ccc(C2=C(c3ccc(Br)cc3)C(=O)OC2)cc1 |
| > 100 | > 31 | 31.5 | COc1ccc(C2=C(c3ccc(NS(C)(=O)=O)cc3)COC2=O)cc1 |
| 31.5 | 39.4 | 0.8 | CS(=O)(=O)Nc1ccc(C2=C(c3ccc(Cl)cc3)C(=O)OC2)cc1 |
